Measurements: patent US7645802B2 (Biovail Laboratories International SRL., priority 2005, dated 2010)
Marks after values point to notes of the source that are not given here.

Columns and labels:
[1] = forced degradation of bupropion HBr and HCl in the presence of excipients at 55° C., 55° C./100% RH, 100° C., 105° C. (incl. TGA at 100° C.); format: physicochemical; details: TGA experiment at 100° C.
Description: Further forced degradation studies were carried out at 55° C., at 55° C. and 100% relative humidity, at 100° C., and at 105° C. on both the HCl and HBr Bupropion salts in the presence of excipients. […] FIG. 53 is a graph showing the loss of each salt over time in a TGA experiment at 100° C.

[2] = test system: rat
[3] = comparative forced degradation of bupropion HCl and HBr API salts, closed bottle, 40° C./75% RH; format: physicochemical
Description: These studies were performed in closed bottles in a stability chamber kept at about 40 degrees C. and about 75% relative humidity. At specified times, the material in the bottles was analyzed for the presence of degradation products and % potency (% assay).
The samples were exposed to the above conditions in a closed bottle for few days, and then subjected to HPLC analysis.
The amount of the main degradation products present after treatment were compared with those amounts that were present initially.
The samples were analyzed after 14 and 24 days (study-1) and 10 days (study II), in a quantitative manner by direct treatment of the whole content of the bottle as per the HPLC standard test method (P05.901.10).

[4] = test system: Rj: Wistar (Han) rats; experiment: EEG trace monitoring and behavioural observations in conscious rats
Description: The effects of the two bupropion salt forms hydrochloride and hydrobromide on central nervous system activity after intraperitoneal administration were evaluated by means of EEG trace monitoring in conscious rats. The method which detects electroencephalographic activity in conscious rats follows that described by Dürmüller et al., (2000) Vigilance-Controlled Quantified EEG in Safety Pharmacology, Current Protocols in Pharmacology Unit 10.6. The study was conducted at Porsolt & Partners Pharmacology, Research Laboratory, Z. A. des Suhards—B.P. 9, 53940 Le Genest-Saint-Isle, France.
Substances: The formulation excipient used was physiological saline (Laboratoire Aguettant). […] All substances were stored in a dry, dark, controlled access area and maintained at a controlled ambient temperature of about 20±3° C. The vehicle solutions were stored at about +4° C. The substances were administered in a volume of 5 ml/kg body weight. The doses of bupropion hydrochloride are expressed in mg/kg of salt. […] The substances were dissolved in physiological saline and prepared freshly at each day of experimentation.
Test systems: The rats used were male Rj: Wistar (Han) rats, weighing from about 280 g to 324 g at the time of implantation. They were supplied by Elevage Janvier, 53940 Le Genest-Saint-Isle, France. […] Upon delivery to the laboratory, the animals were housed in groups of 5 animals maximum, in macrolon cages (44×28×19 cm) containing wood litter (Litalabo—SPPS, 95100 Argenteuil, France). The animals had free access to food (Code 113—SAFE, 89290 Augy, France) and tap water. The animal house was maintained under artificial lighting (12 hrs) from 7:00 to 19:00 in a controlled ambient temperature of about 21±3° C. and relative humidity maintained at from about 30% to about 80%. […] Except during the test sessions, the animals had free access to food (Code 113) and tap water. The animals were identified by marking the connector fixed on the animal's head with an indelible pen. Rats were sacrificed at the end of the experiments by lethal injection of pentobarbital (>100 mg/kg i.p.). Animals were not submitted to necropsy. There is no reason to expect that contaminants were present in the feed, water or bedding at levels capable of interfering with the results of the tests. No checks were performed for this particular study.
Electrode implantation procedure: Implantation surgery was carried out under aseptic conditions. Rats, anesthetized with sodium pentobarbital (60 mg/kg i.p., plus supplementary doses of from about 5 mg/kg to about 10 mg/kg to maintain anesthesia until surgery completion) were implanted with 2 surface EEG electrodes, comprised of miniature titanium screws, placed bilaterally over the frontal-parietal cortex and 2 depth electrodes, comprised of twisted platinium-iridium wires, placed stereotaxically into the hippocampus CA3 area (Paxinos and Watson coordinates interaural: AP+5.0 mm, L±2.5 mm, V+7.0 mm). An additional screw, placed over the right occipital cortex, served as ground electrode. The electrodes were connected to small plugs and the whole assembly was secured on the skull with dental acrylate.
Apparatus: For the EEG recording, the animals were placed in rectangular Plexiglas cubicles (30×10×25 cm) mounted on treadmills. Five recording units were run in parallel. A turning commutator was attached above the centre of each cubicle, about 30 cm above walking level. On one side, it was connected via an electrically shielded multicore cable to the animal and on the other side to the signal conditioning system (Coulbourn Model V75-01). The system filters were set for all channels to high pass 1 Hz and low pass 150 Hz, respectively. The amplification levels were kept at from 1000× to 10000×. The EEG signals were acquired and processed on a PC (DELL GX620-2800) installed with a 16 channel 200 kHz/12-bit AD acquisition card (NI PCI-6023E).

[5] = forced degradation stability study of bupropion salts in vials, 40 degrees C./75% RH, HPLC assay and impurities
[6] = 100 mg/kg i.p., long seizure activity
[7] = spiked with IPA/EtOH, closed vials, 32 days

Structure (SMILES): Br.CC(NC(C)(C)C)C(=O)c1cccc(Cl)c1 (stereo not drawn) [bupropion hydrobromide]
- disproportionation of the salt at elevated temperatures (TGA, loss of API) [1]: did not occur
- NUMBER OF ANIMALS WITH SEIZURE ACTIVITY ([2]; 100 mg/kg i.p., 10 rats per group, long seizure activity, HBr dose in HCl molar equivalent): 4*
- DURATION OF INITIAL SEIZURE CORTEX mean ± s.e.m. [2, 6]: 31 ± 6
- DURATION OF INITIAL SEIZURE HIPPOCAMPUS mean ± s.e.m. [2, 6]: 23 ± 2
- dead ([2]; in vivo, ip, 100 mg/kg): #dead (1/10).
- resulting degradation products, HBr versus HCl ([3]; 14 and 24 days (study-1)): either similar or better for the HBr salt
- level of bupropion degradation impurities, HBr versus HCl ([3]; two batches of each API, 10 days): lower than bupropion HCl
- abnormal behavior ([4]; 60 mg/kg i.p.): One rat in the bupropion hydrobromide group had a fatal whole body clonus immediately after administration
- EEG ANALYSIS Burst cx ([4]; rat, in vivo, ip, 10 mg/kg): −
- EEG ANALYSIS Burst hipp ([4]; rat, in vivo, ip, 10 mg/kg): −
- EEG ANALYSIS Complex spike cx ([4]; rat, in vivo, ip, 10 mg/kg): −
- EEG ANALYSIS Complex spike hipp ([4]; rat, in vivo, ip, 10 mg/kg): −
- EEG ANALYSIS High amplitude fast frequency cx ([4]; rat, in vivo, ip, 10 mg/kg): −
- EEG ANALYSIS High amplitude fast frequency hipp ([4]; rat, in vivo, ip, 10 mg/kg): −
- EEG ANALYSIS High frequency burst activity cx ([4]; rat, in vivo, ip, 10 mg/kg): −
- EEG ANALYSIS High frequency burst activity hipp ([4]; rat, in vivo, ip, 10 mg/kg): −
- EEG ANALYSIS Long seizure activity cx ([4]; rat, in vivo, ip, 10 mg/kg): −
- EEG ANALYSIS Long seizure activity hipp ([4]; rat, in vivo, ip, 10 mg/kg): −
- EEG ANALYSIS Post ictual activity cx ([4]; rat, in vivo, ip, 10 mg/kg): −
- EEG ANALYSIS Post ictual activity hipp ([4]; rat, in vivo, ip, 10 mg/kg): −
- EEG ANALYSIS Repetitive isolated spike cx ([4]; rat, in vivo, ip, 10 mg/kg): −
- EEG ANALYSIS Repetitive isolated spike hipp ([4]; rat, in vivo, ip, 10 mg/kg): −
- EEG ANALYSIS Sharp waves hipp ([4]; rat, in vivo, ip, 10 mg/kg): −
- EEG ANALYSIS Short seizure activity cx ([4]; rat, in vivo, ip, 10 mg/kg): −
- EEG ANALYSIS Short seizure activity hipp ([4]; rat, in vivo, ip, 10 mg/kg): −
- EEG ANALYSIS Spike-and-waves cx ([4]; rat, in vivo, ip, 10 mg/kg): −
- EEG ANALYSIS Spike-and-waves hipp ([4]; rat, in vivo, ip, 10 mg/kg): −
- EEG ANALYSIS Sharp waves cx ([4]; rat, in vivo, ip, 30 mg/kg): −
- EEG ANALYSIS Sharp waves hipp ([4]; rat, in vivo, ip, 30 mg/kg): −
- EEG ANALYSIS Spike-and-waves hipp ([4]; rat, in vivo, ip, 30 mg/kg): −
- EEG ANALYSIS Sharp waves cx ([4]; rat, in vivo, ip, 60 mg/kg): −
- EEG ANALYSIS Sharp waves hipp ([4]; rat, in vivo, ip, 60 mg/kg): −
- EEG ANALYSIS Spike-and-waves cx ([4]; rat, in vivo, ip, 60 mg/kg): −
- EEG ANALYSIS Spike-and-waves hipp ([4]; rat, in vivo, ip, 60 mg/kg): −
- EEG ANALYSIS Sharp waves cx ([4]; rat, in vivo, ip, 100 mg/kg): −
- EEG ANALYSIS Sharp waves hipp ([4]; rat, in vivo, ip, 100 mg/kg): −
- EEG ANALYSIS Spike-and-waves cx ([4]; rat, in vivo, ip, 100 mg/kg): −
- EEG ANALYSIS Spike-and-waves hipp ([4]; rat, in vivo, ip, 100 mg/kg): −
- In water, 852U77: order of impurity content [5]: fumarate > HBr > maleate > HCl
- In water, Total imp.: order of impurity content [5]: fumarate > HBr > HCl > tosylate > maleate
- order of stability (assay, % potency) ([5]; salt plus excipients, closed vials, 20 days, 40 degrees C./75% RH): HBr>HCl≈tosylate>fumarate>maleate
- In IPA/EtOH, 3-CBZ: order of impurity content [5, 7]: maleate > HBr > HCl > Fumarate
- In IPA/EtOH, 852U77: order of impurity content [5, 7]: fumarate > HBr ≈HCl ≈maleate ≈tosylate
- In IPA/EtOH, Total imp.: order of impurity content [5, 7]: fumarate > maleate > HBr > HCl > tosylate
- In water, 3-CBZ: order of impurity content ([5]; spiked with water, closed vials, 32 days): HCl > HBr≈maleate≈fumarate
